Experimental findings from patent US8481527B2, “Benzamide derivatives as bradykinin antagonists” (Richter Gedeon Nyrt., priority 2006, dated 2013) are described below.

In assay [1] the target is T1, recombinant human B1 receptors (Homo sapiens, UniProt P46663).
T1 construct: host or cells: CHO (CHO-B1)
T1 sequence (P46663 1-353): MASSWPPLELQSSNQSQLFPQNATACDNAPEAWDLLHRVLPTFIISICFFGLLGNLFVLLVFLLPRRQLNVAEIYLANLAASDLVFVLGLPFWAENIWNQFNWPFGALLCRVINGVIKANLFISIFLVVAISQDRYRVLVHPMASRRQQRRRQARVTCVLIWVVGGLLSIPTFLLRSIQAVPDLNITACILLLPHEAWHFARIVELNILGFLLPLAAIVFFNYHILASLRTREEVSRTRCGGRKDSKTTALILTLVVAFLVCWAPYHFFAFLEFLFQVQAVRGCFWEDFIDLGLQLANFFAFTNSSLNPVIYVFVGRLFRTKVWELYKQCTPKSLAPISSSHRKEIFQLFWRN
As to the kind of experiment: Functional assay: antagonist potency by cytosolic calcium measurement in CHO-B1 cells (agonist LysDABK). Format: cell-based. The procedure: Assessment of Antagonist Potency at B1 and B2 Receptors In Vitro by Measurement of Cytosolic Calcium Ion Concentration with a Plate Reader Fluorimeter in Cells Expressing Recombinant Human B1 or B2 Receptors
Chinese hamster ovary (CHO) cells stably expressing recombinant human B1 (CHO-B1, Euroscreen) or B2 (CHO-B2, Perkin-Elmer) receptors were cultured in Dulbecco's Modified Eagle's Medium (DMEM) containing 10% Fetal Calf Serum (FCS), 100 U/ml penicillin, 0.1 mg/ml streptomycin, 0.25 μg/ml amphotericin B, 1% Minimum Essential Medium Eagle (MEM), non essential amino acid solution, 600 μg/ml G418, 1% pyruvate (for the B2 cell line). Cells were kept at 37° C. in a humidified incubator in an atmosphere of 5% CO2/95% air and were passaged 1:4 three times a week. Cells were plated at 1.5-2.5×10^4 cell/well on standard 96-well microplates, measurements of cytosolic calcium ion concentration ([Ca^2+]i) were carried out 1-2 days after cell plating.
Measurements of [Ca^2+]i were carried out on CHO-B1 and CHO-B2 cells stably expressing human B1 and B2 receptors, respectively. Cells were grown in standard 96-well microplates and before the measurement were loaded with a fluorescent Ca^2+-sensitive dye, fluo-4/AM (2 μM): after removing the culture medium the dye was added to the cells (dissolved in assay buffer: 145 mM NaCl, 5 mM KCl, 2 mM MgCl2, 2 mM CaCl2, 10 mM HEPES, 20 mM D-glucose, 2 mM probenecid, 100 μl/well) and cells were incubated at 37° C. in a humidified incubator in an atmosphere of 5% CO2/95% air for 40-120 min. To stop dye loading cells were washed twice with assay buffer. After washing, various concentrations of the test compounds (diluted in extracellular medium from a DMSO stock solution, final DMSO concentration was <0.1%) or buffer were added to each well depending on the experimental setup. After incubation at 37° C. for 20-25 min. baseline and agonist-evoked changes of [Ca^2+]i were measured column by column with a plate reader fluorimeter (Fluoroskan Ascent, Labsystems). Excitation and detection of emission was carried out from the bottom of the plate. Filters used for Fluo-4: excitation filter—485 nm, emission filter—538 nm. The whole measurement process was performed at 37° C. and was controlled by custom software. Inhibitory potency of the test compounds was assessed by measuring the reduction in the agonist-evoked [Ca^2+]i-elevation in the presence of different concentrations of the compounds. The agonists were LysDABK for CHO-B1, and bradykinin for CHO-B2 cells. Agonists were applied at an EC80 concentration, the EC80-values were derived from daily determined dose-response curves. Fluorescence data were expressed as ΔF/F (fluorescence change normalized to baseline). All treatments on a single plate were measured in multiple wells. Data from all wells with the same treatment were averaged and the average values were used for analysis. Inhibitory potency of a compound at a single concentration point was expressed as percent inhibition of the control agonist response. Sigmoidal concentration-inhibition curves were fitted to the data (derived from at least three independent experiments) and IC50-values were determined as the concentration that produces half of the maximal inhibition caused by the compound.

The target of assay [2] is T2, human recombinant bradykinin B1 receptor (Homo sapiens, UniProt P46663).
T2 construct: purchased Euroscreen ES-091; host or cells: CHO cells
T2 sequence (P46663 1-353): T1 sequence (P46663 1-353)
Description: Human recombinant bradykinin B1 receptor binding. The procedure:
Receptor Binding Assays 1. Human Recombinant Bradykinin B1 Receptor Binding
Binding assays were carried out on human recombinant bradykinin) receptors (expressed in CHO cells) according to the Euroscreen Technical Data Sheet (Cat.No.:ES-091). 20 μg protein/tube was incubated with [3,4-prolyl-3,4-^3H(N)]-[Des-Arg^10] Kallidin as radioligand. Non specific binding was determined in the presence of 10 μM Lys-des-Arg^9-Bradykinin. The final incubation volume was 250 μl. Samples were incubated for 15 min. at 25° C. then were rapidly vacuum filtered through GF/B filters presoaked for at least 1 h in 0.5% PEI. Radioactivity was determined by liquid scintillation spectroscopy.

[3] abbreviates: CHO-B1 cells, LysDABK at EC80, fluo-4 [Ca2+]i, read-out: B1 func.
Where [4] appears, read: CHO cell membranes, [3H]-[Des-Arg10] Kallidin radioligand, read-out: B1 binding.
Where [5] appears, read: reference compounds, functional test, read-out: IC50.
Setting [6] is: reference compounds, binding test, read-out: Ki.

Structures can show the parent of a compound that is named as a salt. Where two headings read alike, the source gives them in different places.

On to `O=C(NCC(=O)N1CCC(O)CC1)c1ccc(S(=O)(=O)Nc2ccccc2C(=O)c2ccccc2)cc1` [Example 3.16, 4-(2-Benzoyl-phenylsulfamoyl)-N-[2-(4-hydroxy-piperidin-1-yl)-2-oxo-ethyl]-benzamide], for which the IC50 in assay [1] (setting [3]) was below 20 nM. Moreover, the Ki in assay [2] (setting [4]) is below 20 nM.
Turning to `NC(=O)C1CCN(C(=O)CNC(=O)c2ccc(S(=O)(=O)Nc3ccccc3C(=O)c3ccccc3)cc2)CC1` [Example 3.17, 1-{2-[4-(2-Benzoyl-phenylsulfamoyl)-benzoylamino]-acetyl}-piperidine-4-carboxylic acid amide], the IC50 in assay [1] (setting [3]) is below 20 nM. The Ki in assay [2] (setting [4]) was below 20 nM.
Turning to `O=C(NCC(=O)N1CCCNCC1)c1ccc(S(=O)(=O)Nc2ccccc2Oc2ccccc2)cc1` [Example 11.1, N-(2-[1,4]-Diazepan-1-yl-2-oxo-ethyl)-4-(2-phenoxy-phenylsulfamoyl)-benzamide hydrochloride], the IC50 in assay [1] (setting [3]) was below 20 nM. The Ki in assay [2] (setting [4]) was 20 to 100 nM.
The corresponding values for `O=C(NCC(=O)N1CCNCC1)c1ccc(S(=O)(=O)Nc2ccccc2Oc2ccccc2)cc1` [Example 11.2, N-(2-Oxo-2-piperazin-1-yl-ethyl)-4-(2-phenoxy-phenylsulfamoyl)-benzamide hyrochloride] are below 20 nM and 20 to 100 nM.
The corresponding values for `NC1CCN(C(=O)CNC(=O)c2ccc(S(=O)(=O)Nc3ccccc3Oc3ccccc3)cc2)CC1` [Example 11.3, N-[2-(4-Amino-piperidin-1-yl)-2-oxo-ethyl]-4-(2-phenoxy-phenylsulfamoyl)-benzamide hydrochloride] are below 20 nM and below 20 nM.
The corresponding values for `O=C(NCC(=O)N1CCNCC1)c1ccc(S(=O)(=O)Nc2ccccc2Oc2ccc(Cl)cc2Cl)cc1` [Example 11.4, 4-[2-(2,4-Dichloro-phenoxy)-phenylsulfamoyl]-N-(2-oxo-2-piperazin-1-yl-ethyl)-benzamide hydrochloride] are below 20 nM and below 20 nM.
On to `O=C(NCC(=O)N1CCCNCC1)c1ccc(S(=O)(=O)Nc2ccccc2Oc2ccc(Cl)cc2Cl)cc1` [Example 11.5, N-(2-[1,4]Diazepan-1-yl-2-oxo-ethyl)-4-[2-(2,4-dichloro-phenoxy)-phenylsulfamoyl]-benzamide hydrochloride], for which, in assay [1] (setting [3]), the IC50 is below 20 nM. The Ki in assay [2] (setting [4]) was below 20 nM.
As for `O=C(NCC(=O)N1CCCNCC1)c1ccc(S(=O)(=O)Nc2ccccc2C(=O)c2ccccc2)cc1` [Example 11.6, 4-(2-Benzoyl-phenylsulfamoyl)-N-(2-[1,4]diazepan-1-yl-2-oxo-ethyl)-benzamide hydrochloride], the IC50 in assay [1] (setting [3]) was below 20 nM. In addition, the Ki in assay [2] (setting [4]) was below 20 nM.
Turning to `O=C(NCC(=O)N1CCNCC1)c1ccc(S(=O)(=O)Nc2ccccc2C(=O)c2ccccc2)cc1` [Example 11.7, 4-(2-Benzoyl-phenylsulfamoyl)-N-(2-oxo-2-piperazin-1-yl-ethyl)-benzamide hydrochloride], the IC50 in assay [1] (setting [3]) was below 20 nM. For the same molecule, the Ki in assay [2] (setting [4]) is below 20 nM.
For the molecule `CN1CCN(C(=O)C2CCN(S(=O)(=O)c3ccc(NCC(c4ccccc4)c4ccccc4)c(C(=O)N4CCOCC4)c3)CC2)CC1` [NVP-SAA164, 4-{2-[(2,2-diphenyl-ethyl)-amino]-5-{-4-[4-[(4-methyl-1-piperazinyl)-carbonyl]-1-piperidinyl]-sulfonyl}-benzoyl}-morfoline, reference compound], the IC50 in assay [1] (setting [5]) was found to be 33 nM. Further, the Ki in assay [2] (setting [6]) was determined as 8 nM.
On the same counts, the results for `CCCN1C(=O)[C@H](NC(=O)Nc2ccc(N3CCC(N4CCCCC4)CC3)cc2)N=C(c2ccc(C)cc2)c2ccccc21` [compound 3, N-[4-(,4′-bipiperidin)-1′-ylphenyl]-N′-[(3R)-2,3-dihydro-5-(4-methyl-phenyl)-2-oxo-1-propyl-1H-1,4-benzodiazepin-3-yl]-urea, reference compound] are 64.5 nM and 13.4 nM.
